Entries after “also recorded” stand apart in the source; their conditions may differ. Like-named read-outs stand apart in the source and are kept apart here.
How the values were obtained:
[1] = test system: MRC5 human lung fibroblast cells; test: Cell Permeability on Live Eukaryotic Cells; type: cell-based; conditions: 0.5, 1.0, 5.0 and 10.0 μM; 5 minutes at 37° C.; fluorescence microscopy
Description: MRC5 human lung fibroblast cells were harvested and grown in complete culture media (DMEM+10% FBS) for one day after seeding coverslips. Cells were then removed from complete media and placed in Hank's balanced salt solution w/sodium bicarbonate (HBSS) supplemented with 5 mM HEPES, 100 uM L-glutamine and 100 uM succinate containing varying concentrations of Compound 1. Concentrations tested included 0.5, 1.0, 5.0 and 10.0 μM. Cells were incubated for 5 minutes at 37° C./[…] Cells were washed 3×30 seconds in HBSS and mounted on microscope slides in HBSS and sealed with paraffin. After mounting, slides were examined on a Nikon Eclipse 800 upright fluorescent microscope and imaged with standard FITC and TRITC filter sets, a Princeton Instrument MicroMax cooled CCD camera, and Universal Imaging MetaMorph imaging software. […] Signal associated with Compound 1 is detectable with both FITC and TRITC filter sets with greater signal intensity using the FITC set. Regardless of concentration, nucleolar labeling seems to be the most prominent and appears to become slightly more prominent at lower concentrations. Off cell background was minimal in all cases.

[2] = Hazardous Waste Screening Test (toxicity to aquatic life); type: in vivo, Pimephakes promelas; conditions: fathead minnow (Pimephakes promelas), in vivo, other: exposure in tank water containing the compound; fathead minnows; 96 hour exposure
Description: (§1) Compound 1 was tested to determine whether or not the compound was hazardous or toxic to aquatic life. Ten fathead minnows (Pimephakes promelas) were placed each in a 8 liter tank containing vehicle control and a concentration of Compound 1 at 250 mg/L, 500 mg/L and 750 mg/L. After a 96 hour exposure period the number of viable minnows were counted. The survival rate of the minnows for the control and Compound 1 was 100%. Thus, compound 1 has a LC50 value […], which is classified as not hazardous under CCR Title 22 acute toxicity to aquatic life.

[3] = test system: fathead minnows (Pimephakes promelas); test: as above; type: in vivo
Description: as §1

[4] = NPDES testing for compliance with the Clean Water Act
Description: The testes were performed according to EPA protocols cited in Table 9.

[5] = test system: Syrian hamster embryo (SHE) cells; conditions: for MT Frequency (%) / RPE (relative plating efficiency): Syrian hamster, 7 day
[6] = test system: Salmonella typhimurium histidine auxotrophs TA97a, TA98, TA100, TA102, TA1535, TA1537 and TA1538; test: Salmonella/Mammalian Microsomal Reverse Mutation Assay (Ames Test); type: cell-based; conditions: for Ames test mutagenicity classification, early screens: early screens of nucleic acid complexing compounds; for increase in revertants compared to vehicle control (DMSO), TA97a: tester strain TA97a; for increase in revertants compared to vehicle control (DMSO), TA98: tester strain TA98; for increase in revertants compared to vehicle control (DMSO), TA100: tester strain TA100; for increase in revertants compared to vehicle control (DMSO), TA102: tester strain TA102; for increase in revertants compared to vehicle control (DMSO), TA1535: tester strain TA1535; for increase in revertants compared to vehicle control (DMSO), TA1537: tester strain TA1537; for increase in revertants compared to vehicle control (DMSO), TA1538: tester strain TA1538
Description: The Ames assay was performed using the method described by Ames (Ames et al Mutation Research 31 (1975) 347-364; Levin et al. PNAS 79 (1982) 7445-7449; Maron and Ames, Mutation Research 113 (1983) 173-215). Tester stains used were Salmonella typhimurium histidine auxotrophs TA97a, TA98, TA100, TA102, TA1535, TA1537 and TA1538. […] The test compounds, test vehicle and S9 (when appropriate) were combined with molten agar and then overlaid over a minimal agar plate. Following incubation at 37° C., revertant colonies were counted. When S9 was not used, 100 μl of tester strain and 50 μl of control or test compound were added to 2.5 ml of selective top agar. When S9 was used, 500 μl of S9 mix, 100 μl of tester strain and 50 μl of control or test compound was added to 2.0 ml of selective top agar. The top agar was then overlaid onto the surface of 25 ml of minimal bottom agar contained in a 15×100 mm Petri dish. The inverted plates were incubated for 52±4 hr at 37±2° C.
The number of revertants was counted and the test compounds were either considered non-mutagenic or mutagenic. The criteria for determining if a test compound was mutagenic was based on a 2-fold increase in mean revertants per plate for at least one tester strain (TA97a, TA98, TA100 and TA102) over the mean revertants per plate of the appropriate vehicle control. For tester strains TA1535, TA1537 and TA 1538 a positive mutant was identified by a 3-fold increase in mean revertants per plate compared to the appropriate vehicle control. In addition, the increase in the mean number of revertants per plate needed to be accompanied by a dose response to increasing concentrations of the test compound. […] Thiazole orange was also considered mutagenic for two of the tester strains in the absence of S9. Thus, compared to ethidium bromide, thiazole orange is 3-4 times less mutagenic and Compound 1 is 4-5 times less mutagenic. Ethidium bromide and Sybr Green I had previously been tested wherein Sybr Green I was considered a weak mutagen (Singer et al. Mutation Research 439 (1999) 37-47).

DNA in a 1% agarose gel = test: Detection of DNA separated and immobilized in an agarose gel; conditions: for ability to detect nucleic acid immobilized in a gel by electrophoresis: excited with UV light, about 300 nm
[7] = test system: Salmonella typhimurium histidine auxotrophs TA97a, TA98, TA100, TA102, TA1535, TA1537 and TA1538; conditions: cited from earlier work
[8] = test system: Syrian hamster embryo (SHE) cells; test: In Vitro Transformation of Syrian Hamster Embryo (SHE) Cells by 7-Day Exposure Screening Assay
[9] = test system: cultured human lymphocytes; test: Screening Assay for Chromosomal Aberrations in Cultured Human Peripheral Blood Mononuclear Cells (PBMC); type: cell-based
Description: Human venous blood from healthy adult volunteers was drawn in heparinized vacutainers. The whole blood cultures were initiated in 15 ml centrifuge tubes by adding approximately 0.3 ml of fresh heparinized blood into a sufficient volume of culture medium, to that the final volume was 5 mL in the assay with and without metabolic activation after the addition of the test compound. The culture medium was RPMI 1640 supplemented with approximately 20% heat-inactivated fetal bovine serum (FBS), penicillin (100 units/mL), streptomycin (100 μg/mL), L-glutamine (2 mM) and 2% phytohemagglutinin M (PHA-M). The cultures were incubated with loose caps at 37° C.±2° C. in a humidified chamber of approximately 5% CO2 in air.
The in vitro metabolic activation system consisted of a rat liver post-mitochondrial fraction (S9) and an energy-producing system (NADPH plus isocitric acid) (Maron and Ames, 113 Mutation Research (1983) 173-215).
Two days after culture initiation, the cultures were treated with the test compounds. […]
At the end of the incubation period the cultures were centrifuged, the supernatant discarded, and the cells swollen with 75 mM KCl, fixed in methanol:glacial acetic acid (3:1 v/v), dropped onto glass slides and air dried. The slides were stained with 5% Giemsa and air dried and then analyzed for mitotox index, chromosomal aberrations including polyploidy and endoreduplication.

[10] = in the presence of S9 (rat liver extract)

SMILES	RPE (relative plating efficiency) ([5]; 0.04 μg/mL)	RPE (relative plating efficiency) ([5]; 0.26 μg/mL)	Ames test mutagenicity classification, early screens [6]	Ames test mutagenicity classification [6, 10]	increase in revertants compared to vehicle control (DMSO), TA97a [6]	increase in revertants compared to vehicle control (DMSO), TA98 [6]	increase in revertants compared to vehicle control (DMSO), TA100 [6]	increase in revertants compared to vehicle control (DMSO), TA102 [6]	increase in revertants compared to vehicle control (DMSO), TA1535 [6]	increase in revertants compared to vehicle control (DMSO), TA1537 [6]	increase in revertants compared to vehicle control (DMSO), TA1538 [6]	ability to detect nucleic acid immobilized in a gel by electrophoresis (DNA in a 1% agarose gel)	other results
CCC[n+]1ccc(/C=C2\Sc3ccccc3N2C)c2ccccc21 [Compound 1]	97%	25%	either mildly mutagenic or non-mutagenic	mild or non-mutagenic; also recorded: Weakly positive	3.3	3.0	1.7	3.7	1.8	1.8	3.7	able to detect nucleic acid	cell permeability in live cells [1]: cell permeable; LC50 at 96 h [2]: > 500 µg/mL; survival rate of the minnows ([3]; 250 mg/L, 500 mg/L and 750 mg/L, 96 hour exposure): 100%; hazard classification, acute toxicity to aquatic life ([3]; CCR Title 22): not hazardous; also recorded: non-hazardous to aquatic life; compliance with the Clean Water Act and NPDES regulations [4]: complies; MT Frequency (%) ([5]; 0.04 μg/mL): 0.731%; MT Frequency (%) ([5]; 0.05 μg/mL): 0.442%; RPE (relative plating efficiency) ([5]; 0.05 μg/mL): 120%; MT Frequency (%) ([5]; 0.2 μg/mL): 0.313%; RPE (relative plating efficiency) ([5]; 0.2 μg/mL): 85%; MT Frequency (%) ([5]; 0.26 μg/mL): 0.294%; MT Frequency (%) ([5]; 0.3 μg/mL): 0.144%; RPE (relative plating efficiency) ([5]; 0.3 μg/mL): 59%; MT Frequency (%) ([5]; 0.4 μg/mL): 1.304%; RPE (relative plating efficiency) ([5]; 0.4 μg/mL): 66%; MT Frequency (%) ([5]; 0.8 μg/mL): 0.635%; RPE (relative plating efficiency) ([5]; 0.8 μg/mL): 28%; times less mutagenic compared to ethidium bromide ([6]; Ames test): 4-5 times; sensitivity of nucleic acid detection in a gel (DNA in a 1% agarose gel; 1% agarose gel, post-stained 30, 60 and 90 minutes, 1 μM in TBE, 62.5 ng to 30.52 pg DNA): at least as sensitive as ethidium bromide
CC[n+]1c(-c2ccccc2)c2cc(N)ccc2c2ccc(N)cc21 [Ethidium bromide, ethidium bromide]				mutagenic	4.4	68.0	1.6	2.0	1.4	15	80		Ames test mutagenicity classification (previously tested, literature) ([7]; McCann et al. 1975, Singer et al. 1999): mutagenic; RPE (relative plating efficiency) ([8]; 0.200 μg/mL): 85%; RPE (relative plating efficiency) ([8]; 0.400 μg/mL): 66%; RPE (relative plating efficiency) ([8]; 0.800 μg/mL): 28%; Transformation Test, Syrian hamster embryo (SHE) cells: result ([8]; morphological transformation vs vehicle control): positive; Chromosomal Aberrations Test, cultured human peripheral blood lymphocytes: result ([9]; with and without S9 metabolic activation): negative
CCCN(CCCN(C)C)c1cc(/C=C2/Sc3ccccc3N2C)c2ccccc2[n+]1-c1ccccc1 [Sybr Green I]													Ames test mutagenicity classification (previously tested, literature) [7]: weak mutagen
CN1C=C/C(=C\c2sc3ccccc3[n+]2C)c2ccccc21 [Thiazole orange, thiazole orange]	97%	25%	either mildly mutagenic or non-mutagenic	mutagenic	6.9	6.4	2.2	4.7	1.5	17.4	7.8	able to detect nucleic acid	Transformation Test, Syrian hamster embryo (SHE) cells: result [5]: positive; RPE (relative plating efficiency) ([5]; 0.15 μg/mL): 52%; Ames test mutagenicity classification ([6]; in the absence of S9, two of the tester strains): mutagenic; Chromosomal Aberrations Test, cultured human peripheral blood lymphocytes: result [9]: negative
